Counter-ions that a name gives are not always drawn.
Key:
[1] = system: full length SMN2 minigene mRNA (HEK293H cells stably transfected with the SMN2-A minigene construct); test: RT-qPCR assay for SMN2 minigene pre-mRNA splicing in cultured cells; assay type: cell-based; conditions: Homo sapiens, HEK293-H, 24 hours, 7-point concentration curve, concentration giving 1.5-fold FL SMN2mini mRNA vs vehicle, read-out: EC1.5x minigene (EC1.5x concentration for production of full length SMN2 minigene mRNA)
Procedure: The reverse transcription-quantitative PCR-based (RT-qPCR) assay is used to quantify the level of the full length SMN2 minigene (referred to herein by the term “FL SMN2mini”) mRNA containing SMN2 exon 7 in a HEK293H cell line stably transfected with said minigene and treated with a test compound. Materials used and respective sources are listed below in Table 1.
The SMN2-A minigene construct was prepared as described in International Patent Application WO2009/151546A1 page 145 paragraph [00400] to page 147 paragraph [00412] (incl. FIG. 1 and FIG. 3 therein).
HEK293H cells stably transfected with the SMN2-A minigene construct (10,000 cells/well) are seeded in 200 μL of cell culture medium (DMEM plus 10% FBS, with 200 μg/mL hygromycin) in 96-well flat-bottom plates and the plate is immediately swirled to ensure proper dispersal of cells and the formation of an even monolayer of cells. Cells are allowed to attach for 6 hours. Test compounds are serially diluted 3.16-fold in 100% DMSO to generate a 7-point concentration curve. A solution of test compound (1 μL, 200× in DMSO) is added to each cell-containing well and the plate is incubated for 24 hours in a cell culture incubator (37° C., 5% CO2, 100% relative humidity). 2 replicates are prepared for each test compound concentration. The cells are then lysed in the Cells-To-Ct lysis buffer and the lysate is stored at −80° C.
Full length SMN2-A minigene and GAPDH mRNA are quantified using the primers and probes referenced in Table 2. Primer SMN Forward A (SEQ ID NO.1) hybridizes to a nucleotide sequence in exon 7 (nucleotide 22 to nucleotide 40), primer SMN Reverse A (SEQ ID NO.2) hybridizes to a nucleotide sequence in the coding sequence of Firefly luciferase, SMN Probe A (SEQ ID NO.3) hybridizes to a nucleotide sequence in exon 7 (nucleotide 50 to nucleotide 54) and exon 8 (nucleotide 1 to nucleotide 21). The combination of these three oligonucleotides detects only SMN1 or SMN2 minigenes (RT-qPCR) and will not detect endogenous SMN1 or SMN2 genes.
The SMN forward and reverse primers are used at final concentrations of 0.4 μM. The SMN probe is used at a final concentration of 0.15 μM. The GAPDH primers are used at final concentrations of 0.2 μM and the probe at 0.15 μM.
The SMN2-minigene GAPDH mix (15 μL total volume) is prepared by combining 7.5 of 2×RT-PCR buffer, 0.4 μL of 25×RT-PCR enzyme mix, 0.75 μL of 20× GAPDH primer-probe mix, […] of water, 2 μL of 10-fold diluted cell lysate, 0.06 μL of 100 μM SMN forward primer, 0.06 μL of 100 μM SMN reverse primer, and 0.225 μL of 100 μM SMN probe.
PCR is carried out at the following temperatures for the indicated time: Step 1: 48° C. (15 min); Step 2: 95° C. (10 min); Step 3: 95° C. (15 sec); Step 4: 60° C. (1 min); then repeat Steps 3 and 4 for a total of 40 cycles.
Each reaction mixture contains both SMN2-A minigene and GAPDH primers/probe sets (multiplex design), allowing simultaneous measurement of the levels of two transcripts.
The increase in the abundance of the FL SMN2mini mRNA relative to that in cells treated with vehicle control is determined from real-time PCR data using a modified ΔΔCt method (as described in Livak and Schmittgen, Methods, 2001, 25:402-8). The amplification efficiency E is calculated from the slope of the amplification curve for FL SMN2mini and GAPDH individually. The abundance of FL SMN2mini and GAPDH mRNA are then calculated as (1+E)^−Ct, where Ct is the threshold value for each amplicon. The abundance of FL SMN2mini mRNA is normalized to GAPDH mRNA abundance. The normalized FL SMN2mini mRNA abundance from test compound-treated samples is then divided by normalized FL SMN2mini mRNA abundance from vehicle-treated cells to determine the level of FL SMN2mini mRNA relative to vehicle control. […]

[2] = system: SMN protein in SMA patient fibroblast cells (GM03813); test: SMN protein assay (HTRF) in cultured cells; assay type: cell-based; conditions: Homo sapiens, SMA Type 1 patient fibroblasts, 48 hours; for EC (1.5-fold): 7-point concentration curve, concentration giving 1.5 times SMN protein vs vehicle, read-out: EC1.5x SMN protein (EC1.5x concentration for SMN protein expression); for maximal fold induction: fold increase relative to vehicle control, read-out: Max. fold increase of SMN protein
Procedure: The SMN HTRF (homogeneous time resolved fluorescence) assay is used to quantify the level of SMN protein in SMA patient fibroblast cells treated with test compounds. Materials used and respective sources are listed below in Table 4.
Cells are thawed and cultured in DMEM-10% FBS for 72 hours. Cells are trypsinized, counted and re-suspended to a concentration of 25,000 cells/mL in DMEM-10% FBS. The cell suspensions are plated at 5,000 cells per well in a 96 well microtiter plate and incubated for 3 to 5 hours. Test compounds are serially diluted 3.16-fold in 100% DMSO to generate a 7-point concentration curve. 1 μL of test compound solution is transferred to cell-containing wells and cells are incubated for 48 hours in a cell culture incubator (37° C., 5% CO2, 100% relative humidity). Triplicate samples are set up for each test compound concentration. After 48 hours, the supernatant is removed from the wells and 25 μL of the RIPA lysis buffer, containing protease inhibitors, is added to the wells and incubated with shaking at room temperature for 1 hour. 25 μL of the diluent is added and then 35 μL of the resulting lysate is transferred to a 384-well plate, where each well contains 5 μL of the antibody solution (1:100 dilution of anti-SMN d2 and anti-SMN cryptate in SMN reconstitution buffer). The plate is centrifuged for 1 minute to bring the solution to the bottom of the wells, then incubated overnight at room temperature. Fluorescence for each well of the plate at 665 nm and 620 nm is measured on an EnVision multilabel plate reader (Perkin-Elmer).
The normalized fluorescence signal is calculated for each sample, Blank and vehicle control well by dividing the signal at 665 nm by the signal at 620 nm. Normalizing the signal accounts for possible fluorescence quenching due to the matrix effect of the lysate. The ΔF value (a measurement of SMN protein abundance as a percent value) for each sample well is calculated by subtracting the normalized average fluorescence for the Blank control wells from the normalized fluorescence for each sample well, then dividing this difference by the normalized average fluorescence for the Blank control wells and multiplying the resulting value by 100. The ΔF value for each sample well represents the SMN protein abundance from test compound-treated samples. The ΔF value for each sample well is divided by the ΔF value for the vehicle control wells to calculate the fold increase in SMN protein abundance relative to the vehicle control. Table 5 provides EC1.5× concentrations for SMN protein expression that was obtained from the 7-point concentration data generated according to the above procedure for particular compounds of the present invention.
Table 6 provides the maximum fold increase of SMN protein that was obtained from the 7-point concentration data generated according to the above procedure for particular compounds of the present invention

Row | SMILES | EC (1.5-fold) [1] [µM] | EC (1.5-fold) [2] [µM] | maximal fold induction [2]
1 | Cc1cn2cc(NC(=O)c3ccc(N4CCN5CCC[C@H]5C4)cc3F)ncc2n1 [Example 8, 4-[(8aS)-3,4,6,7,8,8a-hexahydro-1H-pyrrolo[1,2-a]pyrazin-2-yl]-2-fluoro-N-(2-methylimidazo[1,2-a]pyrazin-6-yl)benzamide] | 0.0407 | 0.351 | 1.77
2 | Cc1cn2cc(NC(=O)c3ccc(N4CCNC(C)(C)C4)cc3F)nc(C3CC3)c2n1 [Example 37, N-(8-cyclopropyl-2-methylimidazo[1,2-a]pyrazin-6-yl)-4-(3,3-dimethylpiperazin-1-yl)-2-fluorobenzamide hydrochloride] | 0.0317 | 0.287 | 1.72
3 | CC[C@@H]1CN(c2ccc(C(=O)Nc3cn4cc(C)nc4c(C4CC4)n3)c(F)c2)CCN1 [Example 36, N-(8-cyclopropyl-2-methylimidazo[1,2-a]pyrazin-6-yl)-4-[(3R)-3-ethylpiperazin-1-yl]-2-fluorobenzamide hydrochloride] | 0.0534 | 1.09 | 1.53
4 | CCc1nc(NC(=O)c2ccc(N3CCN4CCC[C@H]4C3)cc2F)cn2cc(C)nc12 [Example 16, 4-[(8aS)-3,4,6,7,8,8a-hexahydro-1H-pyrrolo[1,2-a]pyrazin-2-yl]-N-(8-ethyl-2-methylimidazo[1,2-a]pyrazin-6-yl)-2-fluorobenzamide] | 0.0314 | 0.237 | 1.72
5 | Cc1cn2cc(NC(=O)c3ccc(N4CC[C@H](N5CCCC5)C4)cc3F)nc(C)c2n1 [Example 20, N-(2,8-dimethylimidazo[1,2-a]pyrazin-6-yl)-2-fluoro-4-[(3S)-3-pyrrolidin-1-ylpyrrolidin-1-yl]benzamide] | 0.023 | 0.101 | 1.7
6 | Cc1cn2cc(NC(=O)c3ccc(N4CCN[C@H](C)C4)cc3F)nc(C(F)F)c2n1 [Example 44, N-[8-(difluoromethyl)-2-methylimidazo[1,2-a]pyrazin-6-yl]-2-fluoro-4-[(3R)-3-methylpiperazin-1-yl]benzamide] | 0.0095 | 0.035 | 1.79
7 | Cc1cn2cc(NC(=O)c3ccc(N4CCN[C@H](C)C4)cc3F)ncc2n1 [Example 25, 2-fluoro-N-(2-methylimidazo[1,2-a]pyrazin-6-yl)-4-[(3R)-3-methylpiperazin-1-yl]benzamide hydrochloride] | 0.0146 | 0.123 | 1.88
8 | COc1cc(N2CCN[C@H](C)C2)ccc1C(=O)Nc1cn2cc(C)nc2cn1 [Example 38, 2-methoxy-N-(2-methylimidazo[1,2-a]pyrazin-6-yl)-4-[(3R)-3-methylpiperazin-1-yl]benzamide] | 0.0578 | 0.206 | 1.74
9 | Cc1cn2cc(NC(=O)c3ccc(N4CC[C@@H](N5CCCC5)C4)cc3F)ncc2n1 [Example 33, 2-fluoro-N-(2-methylimidazo[1,2-a]pyrazin-6-yl)-4-[(3R)-3-pyrrolidin-1-ylpyrrolidin-1-yl]benzamide] | 0.0222 | 0.122 | 1.78
10 | Cc1cn2cc(NC(=O)c3cc(F)c(N4CCNC(C)C4)cc3F)ncc2n1 (stereo not drawn) [Example 29, 2,5-difluoro-N-(2-methylimidazo[1,2-a]pyrazin-6-yl)-4-(3-methylpiperazin-1-yl)benzamide hydrochloride] | 0.0852 | 0.495 | 1.91
11 | CCOc1cc(N2CCCNCC2)ccc1C(=O)Nc1cn2cc(C)nc2cn1 [Example 9, 4-(1,4-diazepan-1-yl)-2-ethoxy-N-(2-methylimidazo[1,2-a]pyrazin-6-yl)benzamide] | 0.098 | 0.345 | 1.73
12 | CCOc1cc(N2CCC(N3CC(OC)C3)CC2)ccc1C(=O)Nc1cn2cc(C)nc2c(C)n1 [Example 49, N-(2,8-dimethylimidazo[1,2-a]pyrazin-6-yl)-2-ethoxy-4-[4-(3-methoxyazetidin-1-yl)piperidin-1-yl]benzamide] | 0.223 | 1.98 | 1.51
13 | CCOc1cc(N2CCN[C@H](C)C2)ccc1C(=O)Nc1cn2cc(C)nc2c(C)n1 [Example 15, N-(2,8-dimethylimidazo[1,2-a]pyrazin-6-yl)-2-ethoxy-4-[(3R)-3-methylpiperazin-1-yl]benzamide] | 0.038 | 0.303 | 1.72
14 | COc1nc(N2CCNCC2)ccc1C(=O)Nc1cn2cc(C)nc2cn1 [Example 47, 2-methoxy-N-(2-methylimidazo[1,2-a]pyrazin-6-yl)-6-piperazin-1-ylpyridine-3-carboxamide hydrochlorid] | 0.129 | 0.551 | 1.64
15 | Cc1cn2cc(NC(=O)c3c(F)cc(N4CCN5CCC[C@H]5C4)cc3F)nc(C)c2n1 [Example 18, 4-[(8aS)-3,4,6,7,8,8a-hexahydro-1H-pyrrolo[1,2-a]pyrazin-2-yl]-N-(2,8-dimethylimidazo[1,2-a]pyrazin-6-yl)-2,6-difluorobenzamide] | 0.0234 | 0.117 | 1.75
